US20120283235A1, “Dermatologic and Cosmetic Compositions” (DISCOVERY PARTNERS LLC, priority 2009, published 2012)

Test system: Adult human dermal fibroblasts
Test: Collagen type I in human dermal fibroblast conditioned media
Type: cell-based
Details: MAP 100 ug/ml; Vit. C 10 ug/ml; FIG. 1
Protocol: Adult human dermal fibroblasts (facial cells, from Cell Applications, Inc. San Diego, Calif., Catalog #106-05A, Lot 1339) were incubated for seventy-two hours in Fibroblast Growth Serum (Cell Applications, cat. #116-500). Four test formulations, each formulation used at three final test sample dilutions of 2.5%, 0.5% and 0.05%, were added to the incubated cells. All concentrations expressed in weight/weight unless otherwise noted: • (i) Test Formulation #1, CHL-01-057 (labeled “1”) served as a control and contained 90% purified water and 10% butylene glycol; • (ii) Test Formulation #2, CHL-01-053 (labeled “2”) containing 0.2% of 1-Disodium Copper Chlorin E4 in 10% butylene glycol and 89.8% purified water; • (iii) Test Formulation #3, (labeled #3) CHL-01-0 51 containing 0.2% Sodium Copper Chlorophyllin complex, USP in 10% butylene glycol and 89.8% purified water; • (iv) Test Formulation #4, CHL-01-055 (labeled “4”) containing 0.2% Sodium Zinc Chlorophyllin in 10% butylene glycol and 89.8% purified water. Based on the final dilutions, the amount of chlorin, chlorophyllin, or control compound added to the cell culture was 50 ppm, 10 ppm, and 1 ppm (ppm=parts per million by weight). Each of the above formulations was prepared by adding butylene glycol to water and mixing on a heating plate with a magnetic stirrer until the glycol fully dissolved. […]

Compound: O=C1O[C@H]([C@@H](O)CO)C([O-])=C1OP(=O)([O-])[O-].O=C1O[C@H]([C@@H](O)CO)C([O-])=C1OP(=O)([O-])[O-].[Mg+2].[Mg+2].[Mg+2] [Magnesium Ascorbyl Phosphate, magnesium ascorbyl phosphate]
- stimulatory activity on type 1 collagen production (positive controls): strong stimulatory activity

Compound: O=C1O[C@H]([C@@H](O)CO)C(O)=C1O [vitamin C, ascorbic acid]
- stimulatory activity on type 1 collagen production (positive controls): strong stimulatory activity
